Test results taken from patent publication US7122526B2, “Indolocarbazole anticancer agents and methods of using same” (Nanosphere, Inc., priority 2000, dated 2006).

Experiments:
HT-29 Colon = assay: In vitro cytotoxicity assay (MTS), HT-29; format: cell-based; conditions: HT-29 human colon tumor cell line, MTS assay 3–5 days; read-out: Growth-Inhibitory Activity IC50 HT-29 Colon
Procedure: (§1) b.) In vitro Cytotoxicity Assay. 96-Well tissue culture cluster plates were seeded with 100 μL of cell suspension (5×10^3 cells/mL), and incubated overnight for cell anchorage and acclimation. Cells were propagated under sterile conditions in RPMI 1640 or DMEM with 10% fetal bovine serum, 2 mM L-glutamine, and sodium bicarbonate (complete medium), and incubated at 37° C. The test compounds were prepared in DMSO and then diluted in complete media. A range of eight concentrations was used for each test drug to establish cytotoxicity, with eight replicates for each concentration. All dosing was conducted using a Biomek 2000 robotic liquid handler. The plates were incubated at 37° C. with 5% CO2 and 95% relative humidity. The data were analyzed for cytotoxicity using the MTS assay 3–5 days (depending upon the growth rate of the cell lines) after commencement of treatment.
(§2) c.) MTS Assay. A solution of 40 μL of MTS/PES solution (purchased from Promega Corporation) was added to each well, and incubated for one to four hours. The absorbance of formazan in each monolayer was measured at 490 nm on a Coulter microplate reader. The data were processed in a spreadsheet program to provide a dose-response curve, allowing determination of the IC50.

DU-145 Prostate = assay: In vitro cytotoxicity assay (MTS), DU-145; format: cell-based; conditions: DU-145 human prostate tumor cell line, MTS assay 3–5 days; read-out: Growth-Inhibitory Activity IC50 DU-145 Prostate
Procedure: as §1, §2

OVCAR-3 Ovarian = assay: In vitro cytotoxicity assay (MTS), OVCAR-3; format: cell-based; conditions: OVCAR-3 human ovarian tumor cell line, MTS assay 3–5 days; read-out: Growth-Inhibitory Activity IC50 OVCAR-3 Ovarian
Procedure: as §1, §2

Human Topoisomerase I = target: T1, Human Topoisomerase I (Homo sapiens, UniProt P11387); assay: Topoisomerase I assay (pHOT1 supercoiled DNA, agarose gel); format: biochemical; conditions: supercoiled DNA band density, 37° C., 30 minutes; read-out: Poisoning of Human Topoisomerase I IC50
T1 sequence (P11387 1-765): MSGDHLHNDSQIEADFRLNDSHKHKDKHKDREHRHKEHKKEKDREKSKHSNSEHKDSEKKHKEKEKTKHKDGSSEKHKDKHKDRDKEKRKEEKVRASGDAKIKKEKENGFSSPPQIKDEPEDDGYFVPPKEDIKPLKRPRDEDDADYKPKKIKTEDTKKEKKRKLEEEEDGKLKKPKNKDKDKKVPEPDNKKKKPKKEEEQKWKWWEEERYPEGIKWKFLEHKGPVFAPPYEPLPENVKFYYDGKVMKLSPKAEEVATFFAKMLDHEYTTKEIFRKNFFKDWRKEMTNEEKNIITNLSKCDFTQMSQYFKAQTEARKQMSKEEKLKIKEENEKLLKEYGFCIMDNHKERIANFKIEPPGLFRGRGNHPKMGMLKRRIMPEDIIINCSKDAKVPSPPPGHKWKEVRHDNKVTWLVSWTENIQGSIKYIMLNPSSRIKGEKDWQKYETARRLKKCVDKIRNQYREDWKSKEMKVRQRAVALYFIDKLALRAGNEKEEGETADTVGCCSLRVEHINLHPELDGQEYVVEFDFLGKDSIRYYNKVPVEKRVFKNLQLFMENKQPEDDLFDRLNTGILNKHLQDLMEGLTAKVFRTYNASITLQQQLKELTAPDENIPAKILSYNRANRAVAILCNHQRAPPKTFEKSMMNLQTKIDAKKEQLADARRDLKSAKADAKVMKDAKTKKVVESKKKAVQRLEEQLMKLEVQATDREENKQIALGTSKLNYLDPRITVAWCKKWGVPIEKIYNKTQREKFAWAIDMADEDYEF
Procedure: a.) Topoisomerase I assay. Reaction buffer (10.3 μL H2O, 2.0 μL 10×buffer, 1.5 μL […] MgCl2, and 3.2 μL 500 mM KCl) was prepared and kept on ice. 10×Buffer was prepared by mixing 2 mL 2M Tris pH 7.5, 15.3 μL 10% DTT, 100 μL 0.5 M EDTA, 75 μL 20 mg/mL BSA, and […]. Test poisons were prepared in DMSO at such concentrations that the final incubation mixture was 5% DMSO. DNA mix was prepared by dissolving […] of pHOT1 DNA solution (0.25 μg/μL) with 715 μL reaction buffer. Topo I mix was prepared by mixing 14 μL of Topo I solution (2 units/μL) with 266 μL of reaction buffer. Proteinase K solution was prepared fresh as 10 mg/mL in 1% SDS. Gel loading buffer was prepared by dissolving 1 mg bromophenol blue in 100 μL H2O, then adding 900 μL 50% glycerol.
The assay was conducted as follows. DNA mix (14 μL) was added to sample tubes containing 1 μL of test poison solution and stored on ice. Next, 5 μL of Topo I mix was added, the solution was mixed with the pipettor, then incubated with gentle rocking in a 37° C. water bath for 30 minutes. The reactions were stopped via addition of 2 μL of proteinase K solution, and incubation was continued for another 30 minutes, then placed on ice. 2.2 μL of 5 M NaCl and 75 μL of EtOH were added to the tubes, the tubes were vortexed briefly, then placed on dry ice for 1 hour. The DNA was pelleted by centrifugation at 16,000×g for 10 minutes at 4° C. EtOH was removed from each tube using a gel loading pipette tip, and the DNA pellet was resuspended in 18 μL of reaction buffer and 2 μL of gel loading buffer. The samples were vortexed briefly, then spun for 15 seconds in a micro-centrifuge to force all the liquid to the bottom of the tubes. The samples were loaded onto a 1% agarose gel made with 1×TBE containing 2 μg/mL chloroquine. The gels were run at 35 V for 15 hours in 1×TBE. Gels were stained with 0.5 μg/mL ethidium bromide in 1×TBE for 1 hour, then destained for 30 minutes in H2O. Gels were photographed with a digital camera, and the digitized images analyzed using NIH software. IC50 values were determined by comparing supercoiled DNA band density (negative controls containing 5 μL reaction buffer in place of Topo I mix) with the supercoiled DNA bands remaining in the test samples.

Row | Structure (SMILES) | IC50 (HT-29 Colon) | IC50 (DU-145 Prostate) | IC50 (OVCAR-3 Ovarian) | IC50 (Human Topoisomerase I)
1 | CC[C@@]1(O)C(=O)OCc2c1cc1n(c2=O)Cc2cc3c(CN(C)C)c(O)ccc3nc2-1 [Topotecan, reference compound] | 533 nM | 30 nM | < 3 nM | –
2 | O=C1c2c(c3c4cc(O)ccc4n(C4OC(CO)C(O)C(O)C4O)c3c3[nH]c4cc5c(cc4c23)OCCO5)C(=O)N1CO [compound 9, 2,3-ethylenedioxy-6-hydroxymethyl-9-hydroxy-12-(β-D-glucopyranosyl)-6,7,12,13-tetrahydroindolo[2,3-a]pyrrolo[3,4c]carbazole-5,7-dione] | > 10000 nM | 718 nM | < 10 nM | 3900 nM
3 | CC1(C)Oc2cc3[nH]c4c(c5c(c6c7cc(O)ccc7n(C7OC(CO)C(O)C(O)C7O)c46)C(=O)N(CO)C5=O)c3cc2O1 [compound 23, 2,3-isopropylenedioxy-6-hydroxymethyl-9-hydroxy-12-(β-D-glucopyranosyl)-6,7,12,13-tetrahydroindolo[2,3-a]pyrrolo[3,4-c]carbazole-5,7-dione] | > 10000 nM | 3520 nM | 43 nM | 130000 nM
4 | O=C1c2c(c3c4cc(O)ccc4n([C@@H]4O[C@H](CO)[C@@H](O)[C@H](O)[C@H]4O)c3c3[nH]c4cc5c(cc4c23)OCO5)C(=O)N1CO [compound 16, 2,3-methylenedioxy-6-hydroxymethyl-9-hydroxy-12-(β-D-glucopyranosyl)-6,7,12,13-tetrahydroindolo[2,3-a]pyrrolo[3,4-c]carbazole-5,7-dione] | > 10000 nM | 549 nM | < 10 nM | 3600 nM
5 | O=C1NC(=O)c2c1c1c3cc(O)ccc3[nH]c1c1c2c2cc3c(cc2n1[C@@H]1O[C@H](CO)[C@@H](O)[C@H](O)[C@H]1O)OCCO3 [IIa, 2,3-ethylenedioxy-9-hydroxy-13-(β-D-glucopyranosyl)-6,7,12,13-tetrahydroindolo[2,3-a]pyrrolo[3,4-c]carbazole-5,7-dione] | – | – | – | > 400000 nM
6 | O=C1NC(=O)c2c1c1c3cc4c(cc3[nH]c1c1c2c2cc(O)ccc2n1[C@@H]1O[C@H](CO)[C@@H](O)[C@H](O)[C@H]1O)OCCO4 [Ia, 2,3-ethylenedioxy-9-hydroxy-12-(β-D-glucopyranosyl)-6,7,12,13-tetrahydroindolo[2,3-a]pyrrolo[3,4-c]carbazole-5,7-dione] | > 10000 nM | 845 nM | < 10 nM | 5400 nM
7 | O=C1NC(=O)c2c1c1c3cc(O)ccc3[nH]c1c1c2c2cc3c(cc2n1[C@@H]1O[C@H](CO)[C@@H](O)[C@H](O)[C@H]1O)OCO3 [IIb, 2,3-methylenedioxy-9-hydroxy-13-(β-D-glucopyranosyl)-6,7,12,13-tetrahydroindolo[2,3-a]pyrrolo[3,4-c]carbazole-5,7-dione] | – | – | – | > 400000 nM
8 | O=C1NC(=O)c2c1c1c3cc4c(cc3[nH]c1c1c2c2cc(O)ccc2n1[C@@H]1O[C@H](CO)[C@@H](O)[C@H](O)[C@H]1O)OCO4 [Ib, 2,3-methylenedioxy-9-hydroxy-12-(β-D-glucopyranosyl)-6,7,12,13-tetrahydroindolo[2,3-a]pyrrolo[3,4-c]carbazole-5,7-dione] | > 10000 nM | 460 nM | < 10 nM | 3600 nM
9 | O=C1NC(=O)c2c1c1c3cc(O)ccc3[nH]c1c1c2c2cc(O)ccc2n1[C@@H]1O[C@H](CO)[C@@H](O)[C@H](O)[C@H]1O [ALS-007, 3,9-dihydroxy-12-(β-D-glucopyranosyl)-6,7,12,13-tetrahydroindolo[2,3-a]pyrrolo[3,4-c]carbazole-5,7-dione, reference compound] | 9960 nM | 338 nM | < 10 nM | 20900 nM
10 | CC1(C)Oc2cc3[nH]c4c(c5c(c6c7cc(O)ccc7n(C7OC(CO)C(O)C(O)C7O)c46)C(=O)NC5=O)c3cc2O1 [Ic, 2,3-isopropylenedioxy-9-hydroxy-12-(β-D-glucopyranosyl)-6,7,12,13-tetrahydroindolo[2,3-a]pyrrolo[3,4-c]carbazole-5,7-dione] | > 10000 nM | 2360 nM | 36 nM | 8100 nM
